In patent US11180483B2, “Substituted reverse pyrimidine Bmi-1 inhibitors” (PTC Therapeutics, Inc., priority 2012, dated 2021):

System: Bmi-1
Experiment: Sandwich ELISA Assay (Bmi-1 ELISA) in HT-1080 cells
Format: cell-based
Method in brief: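 HT-1080 cells exposed to compound in 0.5% final DMSO for 40-48 h at 37 °C, then lysed. Bmi-1 was quantified by sandwich ELISA: mouse monoclonal capture, rabbit anti-Bmi-1 detection, HRP anti-rabbit and TMB. Read at OD450 (OD570 reference) against a recombinant GST-Bmi-1 standard curve (0-8000 pg/mL).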

Row | EC50 | SMILES
1 | 100 to 3000 nM | Cc1nc2ccc(Br)cc2n1-c1nc(N)cc(Nc2ccc(C(F)(F)F)cc2)n1 [Cpd 85, 2-(6-bromo-2-methyl-1H-benzimidazol-1-yl)-N-[4-(trifluoromethyl)phenyl]pyrimidine-4,6-diamine]
2 | 10 to 100 nM | Cc1ccc2nc(C)n(-c3nc(N)cc(Nc4ccc(C(F)(F)F)cc4)n3)c2c1 [Cpd 86, 2-(2,6-dimethyl-1H-benzimidazol-1-yl)-N-[4-(trifluoromethyl)phenyl]pyrimidine-4,6-diamine]
3 | 100 to 3000 nM | CCc1ccc2nc(C)n(-c3nc(N)cc(Nc4ccc(C(F)(F)F)cc4)n3)c2c1 [Cpd 87, 2-(6-ethyl-2-methyl-1H-benzimidazol-1-yl)-N-[4-(trifluoromethyl)phenyl]pyrimidine-4,6-diamine]
4 | 10 to 100 nM | Cc1nc2c(F)cc(F)cc2n1-c1nc(N)cc(Nc2ccc(C(F)(F)F)cc2)n1 [Cpd 88, 2-(4,6-difluoro-2-methyl-1H-benzimidazol-1-yl)-N-[4-(trifluoromethyl)phenyl]pyrimidine-4,6-diamine]
5 | 100 to 3000 nM | Cc1nc2c(F)cc(F)cc2n1-c1nc(N)cc(Nc2ccc(C(F)(F)F)c(F)c2)n1 [Cpd 89, 2-(4,6-difluoro-2-methyl-1H-benzimidazol-1-yl)-N-[3-fluoro-4-(trifluoromethyl)phenyl]pyrimidine-4,6-diamine]
6 | 100 to 3000 nM | Cc1nc2c(F)cc(F)cc2n1-c1nc(NCCO)cc(Nc2ccc(C(F)(F)F)cc2)n1 [Cpd 90, 2-{[2-(4,6-difluoro-2-methyl-1H-benzimidazol-1-yl)-6-{[4-(trifluoromethyl)phenyl]amino}pyrimidin-4-yl]amino}ethanol]
7 | 100 to 3000 nM | C=Cc1ccc2nc(C)n(-c3nc(N)cc(Nc4ccc(C(F)(F)F)cc4)n3)c2c1 [Cpd 91, 2-(6-ethenyl-2-methyl-1H-benzimidazol-1-yl)-N-[4-(trifluoromethyl)phenyl]pyrimidine-4,6-diamine]
8 | 10 to 100 nM | Nc1cc(Nc2ccc(C(F)(F)F)cc2)nc(-n2c(C3CC3)nc3ncc(F)cc32)n1 [Cpd 92, 2-(2-cyclopropyl-6-fluoro-1H-imidazo[4,5-b]pyridin-1-yl)-N-[4-(trifluoromethyl)phenyl]pyrimidine-4,6-diamine]
9 | 10 to 100 nM | Cc1nc2ccc(Cl)cc2n1-c1nc(N)cc(Nc2ccc(C(F)(F)F)cc2)n1 [Cpd 93, 2-(6-chloro-2-methyl-1H-benzimidazol-1-yl)-N-[4-(trifluoromethyl)phenyl]pyrimidine-4,6-diamine]
10 | 10 to 100 nM | Cc1nc2ncc(F)cc2n1-c1nc(N)cc(Nc2ccc(C(F)(F)F)cc2)n1 [Cpd 94, 2-(6-fluoro-2-methyl-1H-imidazo[4,5-b]pyridin-1-yl)-N-[4-(trifluoromethyl)phenyl]pyrimidine-4,6-diamine]
11 | 10 to 100 nM | Cc1nc2ccccc2n1-c1nc(N)c(F)c(Nc2ccc(C(F)(F)F)cc2)n1 [Cpd 95, 5-fluoro-2-(2-methyl-1H-benzimidazol-1-yl)-N-[4-(trifluoromethyl)phenyl]pyrimidine-4,6-diamine]
12 | 100 to 3000 nM | Cc1nc2ccc(Cl)cc2n1-c1nc(N)cc(Nc2ccc(C(F)(F)F)c(F)c2)n1 [Cpd 96, 2-(6-chloro-2-methyl-1H-benzimidazol-1-yl)-N-[3-fluoro-4-(trifluoromethyl)phenyl]pyrimidine-4,6-diamine]
13 | 10 to 100 nM | Cc1nc2ccc(Cl)cc2n1-c1nc(N)cc(Nc2ccc(OC(F)F)cc2)n1 [Cpd 97, 2-(6-chloro-2-methyl-1H-benzimidazol-1-yl)-N-[4-(difluoromethoxy)phenyl]pyrimidine-4,6-diamine]
14 | 100 to 3000 nM | Cc1nc2cc(Cl)ccc2n1-c1nc(N)cc(Nc2ccc(C(F)(F)F)c(F)c2)n1 [Cpd 98, 2-(5-chloro-2-methyl-1H-benzimidazol-1-yl)-N-[3-fluoro-4-(trifluoromethyl)phenyl]pyrimidine-4,6-diamine]
15 | 100 to 3000 nM | Cc1nc2cc(Cl)ccc2n1-c1nc(N)cc(Nc2ccc(OC(F)F)cc2)n1 [Cpd 99, 2-(5-chloro-2-methyl-1H-benzimidazol-1-yl)-N-[4-(difluoromethoxy)phenyl]pyrimidine-4,6-diamine]
16 | 10 to 100 nM | Cc1nc2cc(F)c(F)cc2n1-c1nc(N)cc(Nc2ccc(OC(F)F)c(F)c2)n1 [Cpd 101, N-[4-(difluoromethoxy)-3-fluorophenyl]-2-(5,6-difluoro-2-methyl-1H-benzimidazol-1-yl)pyrimidine-4,6-diamine]
17 | 10 to 100 nM | Cc1nc2cc(F)c(F)cc2n1-c1nc(N)cc(Nc2ccc(OC(F)F)cc2)n1 [Cpd 102, N-[4-(difluoromethoxy)phenyl]-2-(5,6-difluoro-2-methyl-1H-benzimidazol-1-yl)pyrimidine-4,6-diamine]
18 | 10 to 100 nM | Nc1cc(Nc2ccc(OC(F)F)cc2)nc(-n2c(C3CC3)nc3ncc(F)cc32)n1 [Cpd 103, 2-(2-cyclopropyl-6-fluoro-1H-imidazo[4,5-b]pyridin-1-yl)-N-[4-(difluoromethoxy)phenyl]pyrimidine-4,6-diamine]

Row | EC50 | SMILES
19 | 10 to 100 nM | Cc1nc2ncc(Cl)cc2n1-c1nc(N)cc(Nc2ccc(C(F)(F)F)cc2)n1 [Cpd 104, 2-(6-chloro-2-methyl-1H-imidazo[4,5-b]pyridin-1-yl)-N-[4-(trifluoromethyl)phenyl]pyrimidine-4,6-diamine]
20 | 10 to 100 nM | CCc1nc2ncc(Cl)cc2n1-c1nc(N)cc(Nc2ccc(C(F)(F)F)cc2)n1 [Cpd 105, 2-(6-chloro-2-ethyl-1H-imidazo[4,5-b]pyridin-1-yl)-N-[4-(trifluoromethyl)phenyl]pyrimidine-4,6-diamine]
21 | 10 to 100 nM | Cc1nc2ccccc2n1-c1nc(N)c(F)c(Nc2ccc(OC(F)F)cc2)n1 [Cpd 106, N-[4-(difluoromethoxy)phenyl]-5-fluoro-2-(2-methyl-1H-benzimidazol-1-yl)pyrimidine-4,6-diamine]
22 | 10 to 100 nM | CCc1nc2ccccc2n1-c1nc(N)c(F)c(Nc2ccc(C(F)(F)F)cc2)n1 [Cpd 107, 2-(2-ethyl-1H-benzimidazol-1-yl)-5-fluoro-N-[4-(trifluoromethyl)phenyl]pyrimidine-4,6-diamine]
23 | 100 to 3000 nM | Cc1nc2cc(F)ccc2n1-c1nc(N)c(F)c(Nc2ccc(C(F)(F)F)cc2)n1 [Cpd 108, 5-fluoro-2-(5-fluoro-2-methyl-1H-benzimidazol-1-yl)-N-[4-(trifluoromethyl)phenyl]pyrimidine-4,6-diamine]
24 | 10 to 100 nM | Cc1nc2ccc(F)cc2n1-c1nc(N)c(F)c(Nc2ccc(OC(F)F)cc2)n1 [Cpd 110, N-[4-(difluoromethoxy)phenyl]-5-fluoro-2-(6-fluoro-2-methyl-1H-benzimidazol-1-yl)pyrimidine-4,6-diamine]
25 | 10 to 100 nM | Cc1nc2ccc(F)cc2n1-c1nc(N)c(F)c(Nc2ccc(OC(F)F)c(F)c2)n1 [Cpd 111, N-[4-(difluoromethoxy)-3-fluorophenyl]-5-fluoro-2-(6-fluoro-2-methyl-1H-benzimidazol-1-yl)pyrimidine-4,6-diamine]
26 | 10 to 100 nM | Cc1nc2cc(F)ccc2n1-c1nc(N)c(F)c(Nc2ccc(OC(F)F)c(F)c2)n1 [Cpd 112, N-[4-(difluoromethoxy)-3-fluorophenyl]-5-fluoro-2-(5-fluoro-2-methyl-1H-benzimidazol-1-yl)pyrimidine-4,6-diamine]
27 | 10 to 100 nM | Cc1nc2cc(F)ccc2n1-c1nc(N)c(F)c(Nc2ccc(OC(F)F)cc2)n1 [Cpd 113, N-[4-(difluoromethoxy)phenyl]-5-fluoro-2-(5-fluoro-2-methyl-1H-benzimidazol-1-yl)pyrimidine-4,6-diamine]
28 | 10 to 100 nM | Cc1nc2ncc(Cl)cc2n1-c1nc(N)c(F)c(Nc2ccc(C(F)(F)F)cc2)n1 [Cpd 114, 2-(6-chloro-2-methyl-1H-imidazo[4,5-b]pyridin-1-yl)-5-fluoro-N-[4-(trifluoromethyl)phenyl]pyrimidine-4,6-diamine]
29 | 10 to 100 nM | Cc1nc2ncc(Cl)cc2n1-c1nc(N)c(F)c(Nc2ccc(OC(F)F)cc2)n1 [Cpd 115, 2-(6-chloro-2-methyl-1H-imidazo[4,5-b]pyridin-1-yl)-N-[4-(difluoromethoxy)phenyl]-5-fluoropyrimidine-4,6-diamine]
30 | 10 to 100 nM | Cc1nc2ncc(Cl)cc2n1-c1nc(N)c(F)c(Nc2ccc(OC(F)F)c(F)c2)n1 [Cpd 116, 2-(6-chloro-2-methyl-1H-imidazo[4,5-b]pyridin-1-yl)-N-[4-(difluoromethoxy)-3-fluorophenyl]-5-fluoropyrimidine-4,6-diamine]
31 | 10 to 100 nM | Nc1nc(-n2c(C3CC3)nc3ncc(F)cc32)nc(Nc2ccc(C(F)(F)F)cc2)c1F [Cpd 117, 2-(2-cyclopropyl-6-fluoro-1H-imidazo[4,5-b]pyridin-1-yl)-5-fluoro-N-[4-(trifluoromethyl)phenyl]pyrimidine-4,6-diamine]
32 | 100 to 3000 nM | FC(F)(F)c1ccc(Nc2ccnc(-c3cnc4ccccn34)n2)cc1 [Cpd 118, 2-(imidazo[1,2-a]pyridin-3-yl)-N-[4-(trifluoromethyl)phenyl]pyrimidin-4-amine]
33 | 10 to 100 nM | Cc1nc2ccccc2n1-c1nc(N)c(F)c(Nc2ccc(OC(F)F)c(F)c2)n1 [Cpd 119, N-[4-(difluoromethoxy)-3-fluorophenyl]-5-fluoro-2-(2-methyl-1H-benzimidazol-1-yl)pyrimidine-4,6-diamine]
34 | 10 to 100 nM | Nc1nc(-n2c(C3CC3)nc3ccccc32)nc(Nc2ccc(C(F)(F)F)cc2)c1F [Cpd 120, 2-(2-cyclopropyl-1H-benzimidazol-1-yl)-5-fluoro-N-[4-(trifluoromethyl)phenyl]pyrimidine-4,6-diamine]
35 | 1 to 10 nM | Nc1nc(-n2c(C3CC3)nc3ccccc32)nc(Nc2ccc(OC(F)F)cc2)c1F [Cpd 121, 2-(2-cyclopropyl-1H-benzimidazol-1-yl)-N-[4-(difluoromethoxy)phenyl]-5-fluoropyrimidine-4,6-diamine]
36 | 10 to 100 nM | Nc1nc(-n2c(C3CC3)nc3ccccc32)nc(Nc2ccc(OC(F)F)c(F)c2)c1F [Cpd 122, 2-(2-cyclopropyl-1H-benzimidazol-1-yl)-N-[4-(difluoromethoxy)-3-fluorophenyl]-5-fluoropyrimidine-4,6-diamine]
